In patent US20110195911A1, “SYNTHETIC ANALOGS OF THE JUXTAMEMBRANE DOMAIN OF IGF1R AND USES THEREOF” (THE UNITED STATES OF AMERICA,AS REPRESENTED BY THE …, priority 2008, published 2011):
Where a SMILES comes first, the peptide text is derived from it. The star is where a group is joined. Palmitoyl = CCCCCCCCCCCCCCCC(=O)*

Test system: MCF-7 breast cancer cells
Assay: MTT cell toxicity assay in MCF-7 breast cancer cells
Format: cell-based
Conditions: MCF-7 cells, MTT; for GI50 / TGI: final 0.5% FBS, two days with compound; for TGI: concentration of total growth inhibition (cytostatic); for growth inhibition / potency in MCF-7 cells (in words): comparison with related peptides
Procedure: Cell Toxicity Assays: MCF-7 (breast cancer), T47D (breast cancer), Colo 205 (colon cancer), JM-1 (rat hepatoma), Sk Me1-2 (melanoma), PLC (human hepatoma), and HepG2 (human hepatoma) cells were obtained from American Type Cell Culture Collection. MCF-7 cells were grown in RPMI medium supplemented with 10% Fetal Bovine Serum. The rest of the cell lines were grown in DMEM medium supplemented with 10% Fetal Bovine Serum.
MTT 43-(4,5-Dimethylthiazol-2-yl)-2,5-diphenyltetrazolium) cell assay was performed using MCF-7 breast cancer cells. For the assay, cells were seeded into 96 well plates in medium containing 1% Fetal Bovine Serum and 100 μL of a cell suspension containing 5000 cells per well. Wells containing medium-only, and wells containing untreated cells, served as controls.
Seeded cells were allowed to attach and grow in the wells for 24 hours. A 5 mM stock solution of each peptide was made by dissolving approximately 1 mg of peptide in appropriate amount of DMSO. 2 mL dilutions were used to make 0.2 μM, 1.0 μM, 5.0 μM, and 10.0 μM concentration solutions of the compounds in serum-free medium. 100 μl, of the resulting 2× solutions were added to the corresponding wells to provide a final FBS concentration of 0.5% and 0.1 μM, 0.5 μM, 2.5 μM, and 5.0 μM dilutions of inhibitors. The cells were incubated with test compounds for two days. The control wells were given 100 μL of medium to ensure maximum similarity to the test wells so that all of the wells had 200 μL of medium during the growth period. An individual plate was made for Time Zero, to which the dye was added at the time of addition of compounds.
An alternative potency assay was used to test compounds in MCF-7 (breast cancer), T47D (breast cancer), Colo 205 (colon cancer), JM-1 (rat hepatoma), Sk MeI-2 (melanoma), PLC (human hepatoma), and HepG2 (human hepatoma) cells. Cells were suspended at a concentration of approximately 5000 cells per 100 μL of suspension in a 5% FBS RPMI medium. The cells were seeded into 96-count wells and incubated over night. After one day's incubation, the 5% FBS medium was aspirated and replaced with 100 μL of no serum RPMI medium containing 1 mg Bovine Serum Albumin (BSA) per 1 mL RPMI. Various concentrations of the test compounds were prepared by dilution in no-serum medium containing 1 mg BSA/mL. 75 μL of the test compound solutions were added to the wells, and the cells were allowed to incubate for 15-20 minutes, after which time 25 μL of human recombinant IGF-1 (Peprotech) solution was added to the wells to attain final concentrations of 10 ng IGF-1/mL medium. The control wells were given 175 μL of no-serum medium in addition to 25 μL of IGF-1 solution. An individual plate was made for time zero, in which the medium was also aspirated and replaced with 175 μL of no-serum medium and 25 μL of IGF-1. 15 μL of MTT dye was added and let incubate for 4 hours, after which time a stop stop solubilization solution was added. The stop solution lysed the cells and released the dye reduced by the remaining living cells. Absorbance of the wells at 544 nm was determined by a FLUOstar/POLARstar Galaxy (BMG Lab Technologies GmbH) microplate reader. The activity was calculated from the data using the formula: 100×[(T−T0)/(C−T0)] for T>T0 and 100×[(T−T0)/T0] for T<T0, wherein T0 corresponds to cell density at the time of drug addition, “T” is the optical density of the test well after a 48-h period of exposure to test drug, and “C” is the control optical density. The GI50 measures the growth inhibitory power of the test agent, and is defined as the concentration of test drug where 100×(T−T0)/(C−T0)=50. The TGI is the concentration of test drug where 100×(T−T0)/(C−T0)=0. Thus, the TGI signifies a cytostatic effect.

With `CCCCCCCCCCCCCCCC(=O)N[C@@H](CCCNC(=N)N)C(=O)N[C@@H](CCC(N)=O)C(=O)N1CCC[C@H]1C(=O)N[C@@H](CC(=O)O)C(=O)NCC(=O)N1CCC[C@H]1C(=O)N[C@@H](CC(C)C)C(=O)NCC(=O)N1CCC[C@H]1C(=O)N[C@@H](CC(C)C)C(=O)N[C@@H](Cc1ccc(O)cc1)C(N)=O` [IR-2, Pal-RQPDGPLGPLY-NH2] (Palmitoyl-RQPDGPLGPLY-NH2) the GI50 was 60 ± 1 nM, the TGI was 0.4 ± 0.05 µM and the “growth inhibition / potency in MCF-7 cells (in words)” value was “inhibited growth”.
For `CCCCCCCCCCCCCCCC(=O)N[C@@H](Cc1c[nH]cn1)C(=O)N[C@@H](CCCNC(=N)N)C(=O)N[C@@H](CCCCN)C(=O)N[C@@H](CCCNC(=N)N)C(=O)N[C@@H](CC(N)=O)C(=O)N[C@@H](CC(N)=O)C(=O)N[C@@H](CO)C(=O)N[C@@H](CCCNC(=N)N)C(=O)N[C@@H](CC(C)C)C(=O)NCC(=O)N[C@@H](CC(N)=O)C(=O)NCC(N)=O` [Peptide 1, Pal-HRKRNNSRLGNG-NH2] (Palmitoyl-HRKRNNSRLGNG-NH2), the GI50 was 1800 ± 50 nM and the TGI was >5 µM.
`CCCCCCCCCCCCCCCC(=O)N[C@@H](Cc1c[nH]cn1)C(=O)N[C@@H](CCCNC(=N)N)C(=O)N[C@@H](CCCCN)C(=O)N[C@@H](CCCNC(=N)N)C(=O)N[C@@H](CC(N)=O)C(=O)N[C@@H](CC(N)=O)C(=O)N[C@@H](CO)C(=O)N[C@@H](CCCNC(=N)N)C(=O)N[C@@H](CC(C)C)C(=O)NCC(N)=O` [Peptide 2, Pal-HRKRNNSRLG-NH2] (Palmitoyl-HRKRNNSRLG-NH2) was tested, and the GI50 was 1300 ± 50 nM and the TGI was >5 µM.
For `CCCCCCCCCCCCCCCC(=O)N[C@@H](Cc1c[nH]cn1)C(=O)N[C@@H](CCCNC(=N)N)C(=O)N[C@@H](CCCCN)C(=O)N[C@@H](CCCNC(=N)N)C(=O)N[C@@H](CC(N)=O)C(=O)N[C@@H](CC(N)=O)C(=O)N[C@@H](CO)C(=O)N[C@@H](CCCNC(=N)N)C(=O)N[C@@H](CC(C)C)C(=O)NCC(=O)N[C@@H](CC(N)=O)C(=O)NCC(=O)N[C@H](C(=O)N[C@@H](CC(C)C)C(=O)N[C@@H](Cc1ccc(O)cc1)C(=O)N[C@@H](C)C(=O)N[C@@H](CO)C(=O)N[C@H](C(=O)N[C@@H](CC(N)=O)C(N)=O)C(C)C)C(C)C` [Peptide 3, Pal-HRKRNNSRLGNGVLYASVN-NH2] (Palmitoyl-HRKRNNSRLGNGVLYASVN-NH2), the “cell killing activity (in words)” value was “exhibited cell killing activity” and the TGI was 1.55 ± 0.1 µM.
For `CCCCCCCCCCCCCCCC(=O)N[C@@H](Cc1c[nH]cn1)C(=O)N[C@@H](CCCNC(=N)N)C(=O)N[C@@H](CCCCN)C(=O)N[C@@H](CCCNC(=N)N)C(=O)N[C@@H](CC(N)=O)C(=O)N[C@@H](CC(N)=O)C(=O)N[C@@H](CO)C(=O)N[C@@H](CCCNC(=N)N)C(=O)N[C@@H](CC(C)C)C(=O)NCC(=O)N[C@@H](CC(N)=O)C(=O)NCC(=O)N[C@H](C(=O)N[C@@H](CC(C)C)C(=O)N[C@@H](Cc1ccc(O)cc1)C(=O)N[C@@H](C)C(=O)N[C@@H](CO)C(=O)N[C@H](C(=O)N[C@@H](CC(N)=O)C(=O)N1CCC[C@H]1C(=O)N[C@@H](CCC(=O)O)C(=O)N[C@@H](Cc1ccc(O)cc1)C(=O)N[C@@H](Cc1ccccc1)C(=O)N[C@@H](CO)C(=O)N[C@@H](C)C(=O)N[C@@H](C)C(N)=O)C(C)C)C(C)C` [Peptide 4] (Palmitoyl-HRKRNNSRLGNGVLYASVNPEYFSAA-NH2), the GI50 was 1000 ± 50 nM and the TGI was >5 µM.
In the case of `CCCCCCCCCCCCCCCC(=O)N[C@@H](Cc1c[nH]cn1)C(=O)N[C@@H](CCCNC(=N)N)C(=O)N[C@@H](CCCCN)C(=O)N[C@@H](CCCNC(=N)N)C(=O)N[C@@H](CC(N)=O)C(=O)N[C@@H](CC(N)=O)C(=O)N[C@@H](CO)C(=O)N[C@@H](CCCNC(=N)N)C(=O)N[C@@H](CC(C)C)C(=O)NCC(=O)N[C@@H](CC(N)=O)C(=O)NCC(=O)N[C@H](C(=O)N[C@@H](CC(C)C)C(=O)N[C@@H](Cc1ccc(O)cc1)C(=O)N[C@@H](C)C(=O)N[C@@H](CO)C(=O)N[C@H](C(N)=O)C(C)C)C(C)C` [Peptide 5, Pal-HRKRNNSRLGNGVLYASV-NH2] (Palmitoyl-HRKRNNSRLGNGVLYASV-NH2), the GI50 is reported as 450 ± 50 nM, the TGI is reported as 1.45 ± 0.3 µM and the “growth inhibition / potency in MCF-7 cells (in words)” value is reported as “increased the potency”.
Work on `CCCCCCCCCCCCCCCC(=O)N[C@H](C(=O)N[C@@H](Cc1c[nH]cn1)C(=O)N[C@@H](CCCNC(=N)N)C(=O)N[C@@H](CCCCN)C(=O)N[C@@H](CCCNC(=N)N)C(=O)N[C@@H](CC(N)=O)C(=O)N[C@@H](CC(N)=O)C(=O)N[C@@H](CO)C(=O)N[C@@H](CCCNC(=N)N)C(=O)N[C@@H](CC(C)C)C(=O)NCC(=O)N[C@@H](CC(N)=O)C(=O)NCC(=O)N[C@H](C(=O)N[C@@H](CC(C)C)C(=O)N[C@@H](Cc1ccc(O)cc1)C(=O)N[C@@H](C)C(=O)N[C@@H](CO)C(=O)N[C@H](C(N)=O)C(C)C)C(C)C)C(C)C` [Peptide 6, Pal-VHRKRNNSRLGNGVLYASV-NH2] (Palmitoyl-VHRKRNNSRLGNGVLYASV-NH2) yielded a GI50 of 250 ± 30 nM and a TGI of 1.05 ± 0.1 µM.
`CCCCCCCCCCCCCCCC(=O)N[C@@H](Cc1c[nH]cn1)C(=O)N[C@@H](CCCNC(=N)N)C(=O)N[C@@H](CCCCN)C(=O)N[C@@H](CCCNC(=N)N)C(=O)N[C@@H](CC(N)=O)C(=O)N[C@@H](CC(N)=O)C(=O)N[C@@H](CO)C(=O)N[C@@H](CCCNC(=N)N)C(=O)N[C@@H](CC(C)C)C(=O)NCC(=O)N[C@@H](CC(N)=O)C(=O)NCC(=O)N[C@H](C(=O)N[C@@H](CC(C)C)C(=O)N[C@@H](Cc1ccc(O)cc1)C(=O)N[C@@H](C)C(=O)N[C@@H](CO)C(N)=O)C(C)C` [Peptide 7, Pal-HRKRNNSRLGNGVLYAS-NH2] (Palmitoyl-HRKRNNSRLGNGVLYAS-NH2) gave a GI50 of 1450 ± 100 nM and a TGI of 4.1 ± 0.3 µM.
For `CCCCCCCCCCCCCCCC(=O)N[C@@H](Cc1c[nH]cn1)C(=O)N[C@@H](CCCNC(=N)N)C(=O)N[C@@H](CCCCN)C(=O)N[C@@H](CCCNC(=N)N)C(=O)N[C@@H](CC(N)=O)C(=O)N[C@@H](CC(N)=O)C(=O)N[C@@H](CO)C(=O)N[C@@H](CCCNC(=N)N)C(=O)N[C@@H](CC(C)C)C(=O)NCC(=O)N[C@@H](CC(N)=O)C(=O)NCC(=O)N[C@H](C(=O)N[C@@H](CC(C)C)C(=O)N[C@@H](Cc1ccc(O)cc1)C(=O)N[C@@H](C)C(N)=O)C(C)C` [Peptide 8, Pal-HRKRNNSRLGNGVLYA-NH2] (Palmitoyl-HRKRNNSRLGNGVLYA-NH2), the GI50 was 1400 ± 100 nM and the TGI was >5 µM.
For `CCCCCCCCCCCCCCCC(=O)N[C@@H](Cc1c[nH]cn1)C(=O)N[C@@H](CCCNC(=N)N)C(=O)N[C@@H](CCCCN)C(=O)N[C@@H](CCCNC(=N)N)C(=O)N[C@@H](CC(N)=O)C(=O)N[C@@H](CC(N)=O)C(=O)N[C@@H](CO)C(=O)N[C@@H](CCCNC(=N)N)C(=O)N[C@@H](CC(C)C)C(=O)NCC(=O)N[C@@H](CC(N)=O)C(=O)NCC(=O)N[C@H](C(=O)N[C@@H](CC(C)C)C(N)=O)C(C)C` [Peptide 10, Pal-HRKRNNSRLGNGVL-NH2] (Palmitoyl-HRKRNNSRLGNGVL-NH2), the GI50 was 1800 ± 100 nM and the TGI was >5 µM.
With `CCCCCCCCCCCCCCCC(=O)N[C@@H](Cc1c[nH]cn1)C(=O)N[C@@H](CCCNC(=N)N)C(=O)N[C@@H](CCCCN)C(=O)N[C@@H](CCCNC(=N)N)C(=O)N[C@@H](CC(N)=O)C(=O)N[C@@H](CC(N)=O)C(=O)N[C@@H](CO)C(=O)N[C@@H](CCCNC(=N)N)C(=O)N[C@@H](CC(C)C)C(=O)NCC(=O)N[C@@H](CC(N)=O)C(=O)NCC(=O)N[C@H](C(N)=O)C(C)C` [Peptide 11, Pal-HRKRNNSRLGNGV-NH2] (Palmitoyl-HRKRNNSRLGNGV-NH2) the GI50 was 2500 ± 100 nM and the TGI was >5 µM.
